The values that follow come from patent publication US20250230173A1, “SALT FORMS OF AN AXL INHIBITOR” (Arcus Biosciences, Inc., priority 2023, published 2025).

Entries after “also recorded” stand apart in the source; their conditions may differ.

Holding throughout (format): physicochemical
The nature of data set [1]: Stability study of selected solid forms, HPLC purity after 7 days of storage.
Data set [2] in a line: Stability study of selected solid forms, XRPD after 7 days of storage. An excerpt:
XRPD diffractograms were collected with a Bruker, D2 Phaser or Panalytical Empyrean X-ray diffractometer. Diffractograms can be read by one of skill in the art, for example, to determine if a chemical sample is the substantially the same, different, or represents a mixture of forms. When a diffractogram is “substantially in accordance” as another diffractogram, a person of skill in the art would regard the samples resulting in the two diffractograms as the same form or same mixture of forms, taking into account minor variations for instrumentation, conditions, and the like.
A stability study comparing amorphous freebase Compound I, Freebase Form II, 2-Napsylate Form I, Fumarate Form I, Succinate Form I, and Camsylate Form I was conducted. HPLC measurements were taken after 7 days of storage at the indicated conditions.

Data set [3] is described as follows: Form conversion of 2-Napsylate crystalline forms on vacuum drying or in slurry (XRPD).
A short description of data set [4]: Stability of 2-Napsylate Form I under variable humidity (XRPD). The note with it: RH 10% to 90% at 25° C., every 10% RH, 4 hr equilibration at each step. As to the method:
2-Napsylate Form I was used to test form changes as a function of RH from 10% to 90% at 25° C. The XRPD data was collected every 10% RH (FIG. 20) with an equilibration time of 4 hr at each step.

Data set [5] can be described thus: Hygroscopicity by DVS, XRPD before and after. The note with it: two DVS cycles, 0-90% RH. As to the method:
Hygroscopicity of 2-Napsylate Forms I and VI were assessed using DVS. Samples of 2-Napyslate Form I and Form VI (7-20 mg) were placed separately into a tared sample chamber and automatically weighed.

Data set [6] is described as follows: Storage at 40° C. and 75% RH for one week (XRPD). On the procedure:
The stability of 2-Napsylate Form I was compared with the stability of 2-[…] Form VI when stored at 40° C. and 75% RH for a period of one week.

The nature of data set [7]: Long term and accelerated stability of 2-Napsylate Form I. The conditions noted are these: for Changes on storage: as of 3 months. On the procedure:
Samples of 2-Napsylate Form I were further tested for long term and accelerated stability. Samples of the compound are stored at conditions of either 2-8° C. (long term) or 25° C. and 60% RH (accelerated). Stability samples are packaged in double low-density polyethylene (LDPE) bags in a high-density polyethylene (HDPE) outer container.
Samples are tested for appearance, assay, chemical purity, water content, microbial limits, and crystallinity.

For `Cc1cccnc1-c1ccc(-c2n[nH]c3ncc(-c4ccc5c(c4)CC[C@@H](N4C6COCC4C6)CC5)cc23)nc1` [2-Napsylate Form I], the “HPLC Purity (A %)” value in data set [1] (7 days, 25° C.) came out at 99.82 A %; in data set [1] (7 days, 40° C. / 75% RH), 99.35 A %; in data set [1] (7 days, 60° C.) it was 99.21 A %; in data set [1] (T0) it was 99.82 A %. Further, the “Chemical and physical stability compared to the other forms tested” value in data set [1] (Example 6 stability study) is “better chemical and physical stability; also recorded: improved chemical and physical stability”. Besides, the “XRPD (solid form)” value is given as “Form I” in data set [2] (7 days, 25° C.); “Form I” in data set [2] (7 days, 40° C. / 75% RH); “Form I” in data set [2] (7 days, 60° C.); “Form I” in data set [2] (T0). For the same compound, the “Crystal form after prolonged slurry” value in data set [3] (slurry at 50° C., ACN/DMSO (11:1), after 20 days) is “Form IV + extra XRPD”. Besides, the “Form change as a function of RH (XRPD)” value in data set [4] is reported as “No form change was observed”. In addition, the “Form change after DVS testing (XRPD)” value in data set [5] is listed as “no form change”. Further, in data set [6], the “Stability on storage (XRPD)” value was “stable”. Also, the “Assay ‘anhydrous and solvent-free basis’ (% w/w)” value in data set [7] (2-8° C., 1 month) is reported as 96.9 % w/w; in data set [7] (2-8° C., 3 months), 96.1 % w/w; in data set [7] (2-8° C., 6 months) it was 97.7 % w/w; in data set [7] (2-8° C., Initial), 95.8 % w/w; in data set [7] (25° C. and 60% RH, 1 month) it was 96.8 % w/w; in data set [7] (25° C. and 60% RH, 3 months) it was 95.2 % w/w. For the same compound, the “Assay ‘anhydrous and solvent-free basis’ (% w/w)” value in data set [7] (25° C. and 60% RH, 6 months) amounted to 96.2 % w/w; in data set [7] (25° C. and 60% RH, Initial) it was 95.8 % w/w. Moreover, the Crystallinity entry in data set [7] (2-8° C., 1 month) was “Crystalline”; in data set [7] (2-8° C., 3 months), “Crystalline”; in data set [7] (2-8° C., 6 months), “Crystalline”; in data set [7] (2-8° C., Initial), “Crystalline”. Moreover, the “Total impurity (% a/a)” value is 1.7 % a/a in data set [7] (2-8° C., 1 month); 1.7 % a/a in data set [7] (2-8° C., 3 months); 1.4 % a/a in data set [7] (2-8° C., 6 months); 1.5 % a/a in data set [7] (2-8° C., Initial); 1.8 % a/a in data set [7] (25° C. and 60% RH, 1 month); 1.8 % a/a in data set [7] (25° C. and 60% RH, 3 months). Also, the “Total impurity (% a/a)” value in data set [7] (25° C. and 60% RH, 6 months) came out at 1.6 % a/a; in data set [7] (25° C. and 60% RH, Initial), 1.5 % a/a. The “Water content (% w/w)” value worked out at 1.2 % w/w in data set [7] (2-8° C., 1 month); 1.8 % w/w in data set [7] (2-8° C., 3 months); 2.1 % w/w in data set [7] (2-8° C., 6 months); 0.87 % w/w in data set [7] (2-8° C., Initial); 1.2 % w/w in data set [7] (25° C. and 60% RH, 1 month); 1.6 % w/w in data set [7] (25° C. and 60% RH, 3 months). Besides, the “Water content (% w/w)” value worked out at 2.1 % w/w in data set [7] (25° C. and 60% RH, 6 months); 0.87 % w/w in data set [7] (25° C. and 60% RH, Initial). Also, the Changes on storage entry in data set [7] (accelerated (25° C. and 60% RH)) is “no significant changes”; in data set [7] (long term (2-8° C.)), “no significant changes”.
In the case of `Cc1cccnc1-c1ccc(-c2n[nH]c3ncc(-c4ccc5c(c4)CC[C@@H](N4C6COCC4C6)CC5)cc23)nc1` [Form X], in data set [3] (drying at 40° C. under vacuum (overnight)), the “Crystal form after drying” value is reported as “amorphous after”.
